The results in this text go back to US10525055B2, “Opioid receptor antagonist prodrugs” (Nirsum Laboratories, Inc., priority 2017, dated 2020).

Data set [1] in a line: Solubility determination in oil (cottonseed oil, sesame oil). As to the method:
A known amount of test substance (˜40 mg) was weighed into the vial, 100 μL of oil was added and heated to 60° C. and then system was slurried to reach equilibrium. […] Extra oil was added into the vial once compound precipitated out and then the system was re-equilibrated at 1000 rpm at room temperature (25° C.). Final concentration was determined by HPLC method as described below in Table 6a and 6b.

Data set [2] in a line: Plasma stability assay, rat plasma. To be noted: 37° C., 10 μM. The class given is in vitro ADME. The method, then: Plasma stability determination of the test compounds in rat, dog, cynomolgus monkey and human plasma is performed using HPLC-MS. For rat, incubations are carried out in 96-well polypropylene plates in 5 aliquots of 70 μL each (one for each time point). […] Five time points are analyzed (0, 15, 120, 480 and 1440 min). For dog, monkey and human, test compounds (2 μM, final solvent concentration 1%) were also incubated at 37° C. and analyzed at five time points (0, 10, 30, 60 and 120 min). All incubations are performed in duplicates. The samples are analyzed by HPLC-MS. The percentage of parent compound remaining after incubation in plasma is determined.

Data set [3] can be described thus: Polymorph screening of solid state drug substances. To be noted: for XRPD results (Dried): stirred 50 °C 72 hours, solids dried; for Visual observation 50° C. / Visual observation RT: target conc. 100 mg/ml.
The mark [4] stands for this setting: heating temp. 40 °C, obs. temp. 40 °C.
Where [5] appears, read: heating temp. 60 °C, obs. temp. 25 °C.
The mark [6] stands for this setting: heating temp. 60 °C, obs. temp. 40 °C.

Consider `C=C1CC[C@@]2(O)C3Cc4ccc(OC(=O)CCCCCCC/C=C\CCCCCCCC)c5c4[C@@]2(CCN3CC2CC2)[C@H]1O5` [Compound 36, (4aS,7aS,12bS)-3-(cyclopropylmethyl)-4a-hydroxy-7-methylene-2,3,4,4a,5,6,7,7a-octahydro-1H-4,12-methanobenzofuro[3,2-e]isoquinolin-9-yl oleate], for which the “Approximate Solubility (mg/mL) in Excipient: Cottonseed oil” value in data set [1] (Cottonseed oil, heating temp. 60 °C, obs. temp. 25 °C) is greater than 407 mg/mL. The “Approximate Solubility (mg/mL) in Excipient: Sesame oil” value (“Approximate Solubility … Sesame oil” below) in data set [1] (setting [4]) was greater than 411.6 mg/mL. The “Approximate Solubility … Sesame oil” value in data set [1] (setting [5]) is on record as greater than 408 mg/mL. In data set [2], the “% remaining at time point in minutes, 0 min” value worked out at 100%; the “% remaining at time point in minutes, 15 min” value (from here on “% remaining … 15 min”) stood at 74.4%; the “% remaining at time point in minutes, 120 min” value (shortened to “% remaining … 120 min”) amounted to 66.3%; the “% remaining at time point in minutes, 480 min” value (“% remaining … 480 min” for short) came out at 39.8%. The “% remaining at time point in minutes, 1440 min” value (“% remaining … 1440 min” below) in data set [2] came out at 19.1%.
Take `CC(C)(C)CC(=O)Oc1ccc2c3c1O[C@H]1C(=O)CC[C@@]4(O)C(C2)N(CC2CC2)CC[C@]314` [Compound 42, (4aS,7aR,12bS)-3-(cyclopropylmethyl)-4a-hydroxy-7-oxo-2,3,4,4a,5,6,7,7a-octahydro-1H-4,12-methanobenzofuro[3,2-e]isoquinolin-9-yl 3,3-dimethylbutanoate]: the “Approximate Solubility … Sesame oil” value in data set [1] (setting [4]) is recorded as less than 52 mg/mL; in data set [1] (setting [6]) it was less than 25.8 mg/mL.
As to `CCCCCCCCCCCCCCCC(=O)OCOc1ccc2c3c1O[C@H]1C(=O)CC[C@@]4(O)C(C2)N(CC2CC2)CC[C@]314` [Compound 49, (((4aS,7aR,12bS)-3-(cyclopropylmethyl)-4a-hydroxy-7-oxo-2,3,4,4a,5,6,7,7a-octahydro-1H-4,12-methanobenzofuro[3,2-e]isoquinolin-9-yl)oxy)methyl hexadecanoate], the “Approximate Solubility … Sesame oil” value in data set [1] (setting [5]) was less than 51 mg/mL.
Consider `C=C1CC[C@@]2(O)C3Cc4ccc(OC(=O)CCCCCCCCCCCCCCCCCCC)c5c4[C@@]2(CCN3CC2CC2)[C@H]1O5` [Compound 16, (4aS,7aS,12bS)-3-(cyclopropylmethyl)-4a-hydroxy-7-methylene-2,3,4,4a,5,6,7,7a-octahydro-1H-4,12-methanobenzofuro[3,2-e]isoquinolin-9-yl icosanoate], for which the “XRPD results (Dried)” value in data set [3] (Acetone), in data set [3] (EtOAc), in data set [3] (Heptane), in data set [3] (Isopropanol) and in data set [3] (MTBE) was “Pattern A” in each case. In addition, the “Visual observation 50° C.” value is “Clear” in data set [3] (Acetone); “Clear” in data set [3] (EtOAc); “Slurry” in data set [3] (Heptane); “Slurry” in data set [3] (Isopropanol); “Clear” in data set [3] (MTBE). For the same molecule, the “Visual observation RT” value in data set [3] (Acetone) is on record as “Slurry”; in data set [3] (EtOAc), “Slurry”; in data set [3] (Heptane), “Slurry”; in data set [3] (Isopropanol), “Slurry”; in data set [3] (MTBE), “Clear”. The “Comment: stability of initial crystal form (pattern A)” value in data set [3] (polymorph screen over Heptane, MTBE, Isopropanol, EtOAc, Acetone) was “likely stable form. Same crystal form”. The “Approximate Solubility … Sesame oil” value in data set [1] (setting [6]) fell in the range of 202 to 404 mg/mL.
In the case of `CCCCCCCCCCCCCCC(=O)Oc1ccc2c3c1O[C@H]1C(=O)CC[C@@]4(O)C(C2)N(CC2CC2)CC[C@]314` [Compound 58, (4aS,7aR,12bS)-3-(cyclopropylmethyl)-4a-hydroxy-7-oxo-2,3,4,4a,5,6,7,7a-octahydro-1H-4,12-methanobenzofuro[3,2-e]isoquinolin-9-yl pentadecanoate], the “Approximate Solubility … Sesame oil” value in data set [1] (setting [5]) was 99.4 to 198.8 mg/mL. Moreover, in data set [2], the “% remaining at time point in minutes, 0 min” value is recorded as 100%; the “% remaining … 15 min” value is recorded as 37%; the “% remaining … 120 min” value worked out at 20%; the “% remaining … 480 min” value was 2.9%. For the same molecule, the “% remaining … 1440 min” value in data set [2] came out at 1.8%.
For “Enalapril maleate salt [reference compound]”, in data set [2], the “% remaining at time point in minutes, 0 min” value is 100%; the “% remaining … 15 min” value was determined as 44%; the “% remaining … 120 min” value was found to be 2.9%; the “% remaining … 480 min” value is 8.2%. The “% remaining … 1440 min” value in data set [2] was 4.8%.
Regarding `CCCCCCCCCCCCCCCCCC(=O)Oc1ccc2c3c1O[C@H]1C(=O)CC[C@@]4(O)C(C2)N(CC2CC2)CC[C@]314` [Compound 54, (4aS,7aR,12bS)-3-(cyclopropylmethyl)-4a-hydroxy-7-oxo-2,3,4,4a,5,6,7,7a-octahydro-1H-4,12-methanobenzofuro[3,2-e]isoquinolin-9-yl stearate], in data set [1] (setting [5]), the “Approximate Solubility … Sesame oil” value is listed as less than 50 mg/mL. Further, in data set [2], the “% remaining at time point in minutes, 0 min” value was found to be 100%; the “% remaining … 15 min” value was 98.8%; the “% remaining … 120 min” value is 62.4%; the “% remaining … 480 min” value was 45.6%. For the same molecule, the “% remaining … 1440 min” value in data set [2] was 19.4%.
Consider `CCCCCCCCCCCCCCCCCCCCCC(=O)Oc1ccc2c3c1O[C@H]1C(=O)CC[C@@]4(O)C(C2)N(CC2CC2)CC[C@]314` [Compound 51, (4aS,7aR,12bS)-3-(cyclopropylmethyl)-4a-hydroxy-7-oxo-2,3,4,4a,5,6,7,7a-octahydro-1H-4,12-methanobenzofuro[3,2-e]isoquinolin-9-yl docosanoate], for which, in data set [2], the “% remaining at time point in minutes, 0 min” value turned out to be 100%; the “% remaining … 15 min” value amounted to 107.4%; the “% remaining … 120 min” value is listed as 105.3%; the “% remaining … 480 min” value came out at 88.2%. Also, the “% remaining … 1440 min” value in data set [2] was found to be 92.7%.
For the molecule `CCCCCCCC/C=C\CCCCCCCCCCCC(=O)Oc1ccc2c3c1O[C@H]1C(=O)CC[C@@]4(O)C(C2)N(CC2CC2)CC[C@]314` [Compound 22, (4aS,7aR,12bS)-3-(cyclopropylmethyl)-4a-hydroxy-7-oxo-2,3,4,4a,5,6,7,7a-octahydro-1H-4,12-methanobenzofuro[3,2-e]isoquinolin-9-yl (Z)-docos-13-enoate], the “Approximate Solubility (mg/mL) in Excipient: Ethanol” value in data set [1] (Ethanol, heating temp. 60 °C, obs. temp. 40 °C) is reported as greater than 397.7 mg/mL. Also, the “Approximate Solubility … Sesame oil” value in data set [1] (setting [6]) was greater than 401.9 mg/mL.
As for `C=C1CC[C@@]2(O)C3Cc4ccc(OC(=O)OCCCCCCCCCCCCCCCCCC)c5c4[C@@]2(CCN3CC2CC2)[C@H]1O5` [Compound 33, (4aS,7aS,12bS)-3-(cyclopropylmethyl)-4a-hydroxy-7-methylene-2,3,4,4a,5,6,7,7a-octahydro-1H-4,12-methanobenzofuro[3,2-e]isoquinolin-9-yl octadecyl carbonate], the “Approximate Solubility … Sesame oil” value in data set [1] (setting [5]) is less than 51 mg/mL.
As to `CCCCCCCCCCCCCCOC(=O)OCOc1ccc2c3c1O[C@H]1C(=O)CC[C@@]4(O)C(C2)N(CC2CC2)CC[C@]314` [Compound 27, (((4aS,7aR,12bS)-3-(cyclopropylmethyl)-4a-hydroxy-7-oxo-2,3,4,4a,5,6,7,7a-octahydro-1H-4,12-methanobenzofuro[3,2-e]isoquinolin-9-yl)oxy)methyl tetradecyl carbonate], the “Approximate Solubility … Sesame oil” value in data set [1] (setting [5]) is given as greater than 399.2 mg/mL.
`C=C1CC[C@@]2(O)C3Cc4ccc(OC(=O)CCCCCCC/C=C\C/C=C\C/C=C\CC)c5c4[C@@]2(CCN3CC2CC2)[C@H]1O5` [Compound 20, (4aS,7aS,12bS)-3-(cyclopropylmethyl)-4a-hydroxy-7-methylene-2,3,4,4a,5,6,7,7a-octahydro-1H-4,12-methanobenzofuro[3,2-e]isoquinolin-9-yl (9Z,12Z,15Z)-octadeca-9,12,15-trienoate]: in data set [1] (setting [4]), the “Approximate Solubility … Sesame oil” value is reported as greater than 406 mg/mL.
In the case of `C=C1CC[C@@]2(O)C3Cc4ccc(OC(=O)CCC5CCCC5)c5c4[C@@]2(CCN3CC2CC2)[C@H]1O5` [Compound 39, (4aS,7aS,12bS)-3-(cyclopropylmethyl)-4a-hydroxy-7-methylene-2,3,4,4a,5,6,7,7a-octahydro-1H-4,12-methanobenzofuro[3,2-e]isoquinolin-9-yl 3-cyclopentylpropanoate], in data set [1] (setting [5]), the “Approximate Solubility … Sesame oil” value fell in the range of 106 to 141 mg/mL.
Same read-out and setting: the value for `C=C1CC[C@@]2(O)C3Cc4ccc(OC(=O)OCCCCCCCCCCCCCCCCCCCC)c5c4[C@@]2(CCN3CC2CC2)[C@H]1O5` [Compound 28, (4aS,7aS,12bS)-3-(cyclopropylmethyl)-4a-hydroxy-7-methylene-2,3,4,4a,5,6,7,7a-octahydro-1H-4,12-methanobenzofuro[3,2-e]isoquinolin-9-yl icosyl carbonate] was less than 50.6 mg/mL.
